# pEC50, pKi: −log10 of the molar value. Several values for one entry are separate records, joined by “and”; a condition that tells them apart may be missing. Equal entries are not always repeated. Where two headings read alike, the source gives them in different places.
# What was measured:
# [1] = cited from earlier work
# [2] = biological target: human MT1 receptor (Homo sapiens, UniProt P48039); experiment: MT1 receptor GTPγS studies; assay type: biochemical
# [3] = Safety and tolerability in the PET studies; assay type: in vivo, human
# Description: Safety and tolerability assessments included records of adverse events, vital signs (blood pressure, heart rate), Allen’s test, ECG, clinical chemistry, hematology assessments, and urinalysis.
# [4] = set-up: method as in Chen et al. 2014, 2015; details: neurophysiological test battery; ref Chen et al. 2014, 2015; cited from earlier work
# [5] = Plasma pharmacokinetics after single oral doses in the PET studies; assay type: in vivo, human; details: for C av,PET: average plasma concentration at time of PET
# Procedure: Venous blood samples for determination of drug plasma concentrations were collected at approximately 15 min before [^11C]flumazenil injection and at 15 and 30 min and 3, 4, 6, 8, 10, 12, 16, 24, 36, and 48 h after drug administration, including three samples during PET measurement, at 1, 1.30, and 2 h after drug administration.
# Calculations of the pharmacokinetic parameters included the maximum plasma concentration (C max), the time to the maximum plasma concentration (T max), and the average drug plasma concentration during the PET measurement (C av,PET) (division of the partial area corresponding to the start and end times of PET assessment, AUCPET, by the duration of the PET measurement). The pharmacokinetic calculations were performed using non-compartmental analysis using WinNonlin™, Pharsight Corporation.
# [6] = tested on: approximately 160 different ligand binding assays; experiment: Battery of approximately 160 different ligand binding assays at 10 μM; details: active = ≥50% inhibition with an IC50 <1µM
# [7] = Brain exposure in animals; assay type: in vivo
# [8] = tested on: GABAA receptors (benzodiazepine binding site); experiment: PET with [11C]flumazenil (HRRT): GABAA receptor occupancy; assay type: in vivo, human; details: for Occupancy (%) OC: occipital cortex; for Occupancy (%) OC / Occupancy (%) AMG / Occupancy (%) CER / Occupancy (%) PUT: 1 h after drug administration; for Occupancy (%) AMG: amygdala; for Occupancy (%) CER: cerebellum; for Occupancy (%) PUT: putamen
# Procedure: Two separate open-label phase I PET studies were conducted in 2008–2009.
# The initial study design included two sequential panels, with two subjects in each. The first panel was intended to obtain initial receptor occupancy values, to be used for dose selection in the second panel. […] The studies followed an adaptive design, i.e., doses and PET measurements were adjusted depending on the results of preceding measurements. […] To optimize quantification of the relationship between AZ6280 exposure and receptor occupancy, the number of subjects with the highest 40 mg dose was increased (Fig. 1).
# The head of the subject was fixed using individual plaster helmet. A sterile physiological phosphate buffer (pH 7.4) solution containing [^11C]flumazenil was injected intravenously as a bolus during 2 s, immediately followed by flush with 10 ml saline. The injected radioactivity for [^11C]flumazenil was in the range of 330–350 MBq, (340 (9) MBq, mean, SD) in the study 1 and in the range of 317–363 MBq (335 (16) MBq) in the study 2. The specific radioactivity of the radioligand at time of injection ranged from 310 to 1465 GBq/μmol (730 (414) GBq/μmol, mean, SD) and from 464 to 1879 GBq/μmol (977 (424) GBq/μmol, mean, SD), for study 1 and study 2, respectively.
# PET examinations were performed over 63 min (HRRT; Siemens/CTI). List mode data were reconstructed using the ordinary Poisson 3D ordered subset estimation maximization algorithm, with 10 iterations and 16 subsets including modeling of the point spread function (Varrone et al. [2009]) into a 4D PET image containing 33 consecutive time frames (9 × 10 s, 2 × 15 s, 3 × 20 s, 4 × 30 s, 4 × 60 s, 4 × 180 s, 7 × 360 s) with a 3D array of 256 × 256 × 207 voxels having a size of 1.22 × 1.22 × 1.22 mm.
# The anatomical brain regions were delineated manually on the MR images using in-house image analysis software. The regions included cortical and striatal subregions, thalamus, cerebellum, limbic regions, pons, and whole brain. The following four regions were selected in the final analysis: The occipital cortex and cerebellum were chosen because of the highest GABAA receptor binding by [^11C]flumazenil and good imaging statistics and preferential distribution of α1/α2 receptor subtypes; the amygdala was chosen because of its role in the brain circuits involved in anxiety and putamen for preferential α1/α2/α3 versus α5 receptor subtypes (Lingford-Hughes et al. [2002]; Fatemi et al. [2013]; Waldvogel and Faull [2015]). For the pons, the ROI was drawn on horizontal projection on the six central slices. […] The concentration of radioactivity in each ROI, calculated for each sequential time frame and corrected for ^11C decay, was plotted versus time (TACs).
# An index of neuronal GABAA receptor density or binding potential (BPND) was calculated using the simplified reference tissue model (Lammertsma and Hume [1996]) and pons as a reference region. The calculated receptor occupancy (%) was then correlated to drug exposure according to the following equation:1 Occupancy=Occmax×Cav,PET/Ki,plasma+Cav,PET
# where Occmax is the maximal occupancy induced by drug, C av,PET is the total drug plasma concentration, and K i,plasma is the inhibition constant corresponding to the drug plasma concentration required for half-maximum receptor occupancy. Non-linear least squares curve fitting of the relationship between drug plasma concentration and receptor occupancy was performed using Matlab R2007b (http://de.mathworks.com). Regional data were fitted simultaneously to obtain a single estimate of K i,plasma and regionally different estimates of Occmax. Best fit estimate and confidence interval (95% CI) were obtained on the logarithmic scale.
# [9] = AZD6280 5 to 40 mg single oral doses
# human MT1 receptor, sequence (P48039 whole entry): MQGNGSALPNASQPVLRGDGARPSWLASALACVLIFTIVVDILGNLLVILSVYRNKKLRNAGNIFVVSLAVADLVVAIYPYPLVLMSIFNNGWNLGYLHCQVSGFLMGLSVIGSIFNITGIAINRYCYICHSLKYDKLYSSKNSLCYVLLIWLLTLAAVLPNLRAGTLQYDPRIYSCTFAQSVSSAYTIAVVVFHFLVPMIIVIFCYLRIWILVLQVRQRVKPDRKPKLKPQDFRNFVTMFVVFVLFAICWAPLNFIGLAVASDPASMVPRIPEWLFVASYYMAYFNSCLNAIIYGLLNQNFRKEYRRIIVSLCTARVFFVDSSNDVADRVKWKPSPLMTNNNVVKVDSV
compound,measurement,setting,value
CCCNC(=O)c1nnc2c(-c3cc(OC)ccc3OC)cccc2c1N [AZD6280],sedation scores in VAS alertness scale compared to placebo,"[1]; 1 h post-dose, dose ≥20 mg, ref AZ data on file",numerically higher sedation scores
same,correct answers on DSST,"[1]; 2 h after administration, dose ≥20 mg, ref AZ data on file",lower mean correct answers
same,relationship between dose and alertness or cognitive performance,"[1]; VAS alertness-sedation, Modified Wilson Sedation Scale, DSST, ref NCT00681317 and NCT00681915",no significant relationship
same,pEC50,[2],7.72
same,Emax,[2],90%
same,most common AEs: dizziness,[3]; [9],four of eight subjects
same,most common AEs: feeling drunk,[3]; [9],two out of eight subjects
same,receptor occupancy at the doses/exposure at which adverse events were reported,"[3]; AZD7325 5, 20 and 30 mg, AZD6280 20 mg and above",> 60%
same,high receptor occupancy reached without obvious sedative effects,[3]; PET studies,> 60%
same,doses at which AEs were reported,[3]; not at 5 and 12 mg dose,≥ 20 mg
same,receptor occupancy up to which no cognitive or hypnotic side effects were observed,[4],up to 60%
same,T max,"[5]; AZD6280 single oral dose 5 mg, individual subjects",108 min
same,Cmax,"[5]; AZD6280 single oral dose 5 mg, individual subjects, read-out: C max",179 nM and 77.2 nM
same,"C av,PET",[5]; AZD6280 single oral dose 12 mg,204.68 nM
same,"C av,PET",[5]; AZD6280 single oral dose 20 mg,592.22 nM
same,"C av,PET",[5]; AZD6280 single oral dose 30 mg,513.07 nM and 676.82 nM
same,T max,"[5]; AZD6280 single oral dose 30 mg, individual subjects",30 min
same,Cmax,"[5]; AZD6280 single oral dose 30 mg, individual subjects, read-out: C max",731 nM
same,T max,"[5]; AZD6280 single oral dose 40 mg, individual subjects",30 min and 36 min
same,Cmax,"[5]; AZD6280 single oral dose 40 mg, individual subjects, read-out: C max",1250 nM and 1500 nM and 439 nM and 1510 nM
same,Cmax,"[5]; human, plasma, oral, range over all doses and subjects, read-out: range for peak exposures, Cmax",28.3 to 555 ng/mL
same,Tmax,"[5]; human, plasma, po, 5 mg, AZD6280 single oral dose 5 mg, individual subjects",60 min
same,Tmax,"[5]; human, plasma, po, 12 mg, AZD6280 single oral dose 12 mg, individual subject",54 min
same,Cmax,"[5]; human, plasma, po, 12 mg, AZD6280 single oral dose 12 mg, individual subject, read-out: C max",249 nM
same,Tmax,"[5]; human, plasma, po, 20 mg, AZD6280 single oral dose 20 mg, individual subject",96 min
same,Cmax,"[5]; human, plasma, po, 20 mg, AZD6280 single oral dose 20 mg, individual subject, read-out: C max",677 nM
same,Cmax,"[5]; human, plasma, po, 30 mg, AZD6280 single oral dose 30 mg, individual subjects, read-out: C max",729 nM
same,activity in the battery of ligand binding assays,[6],only assays in which either compound was active were the melatonin Type 1 and Type 2 receptors
same,brain exposure,[7],good brain exposure
same,receptor occupancy at the maximum tolerated dose,"[8]; 40 mg AZD6280, cortex and cerebellum",over 60%
same,Occupancy (%) OC,[8]; AZD6280 single oral dose 5 mg,11% and 7%
same,Occupancy (%) AMG,[8]; AZD6280 single oral dose 12 mg,−8%
same,Occupancy (%) CER,[8]; AZD6280 single oral dose 12 mg,25%
same,Occupancy (%) OC,[8]; AZD6280 single oral dose 12 mg,17%
same,Occupancy (%) PUT,[8]; AZD6280 single oral dose 12 mg,0%
same,Occupancy (%) AMG,[8]; AZD6280 single oral dose 20 mg,20%
same,Occupancy (%) CER,[8]; AZD6280 single oral dose 20 mg,65%
same,Occupancy (%) OC,[8]; AZD6280 single oral dose 20 mg,60%
same,Occupancy (%) PUT,[8]; AZD6280 single oral dose 20 mg,32%
same,Occupancy (%) AMG,[8]; AZD6280 single oral dose 30 mg,9% and 5%
same,Occupancy (%) CER,[8]; AZD6280 single oral dose 30 mg,50% and 59%
same,Occupancy (%) OC,[8]; AZD6280 single oral dose 30 mg,39% and 43%
same,Occupancy (%) PUT,[8]; AZD6280 single oral dose 30 mg,16% and 14%
same,Occupancy (%) CER,[8]; AZD6280 single oral dose 40 mg,69% and 61% and 62% and 60%
same,Occupancy (%) OC,[8]; AZD6280 single oral dose 40 mg,50% and 52% and 62% and 53% and 36%
same,Receptor occupancy (RO),"[8]; at 40mg, MTD, present study",60-70%
same,pKi,"[8]; read-out: K i,plasma (plasma concentration required for 50% receptor occupancy), hyperbolic fit of occupancy vs C av,PET, regional data fitted simultaneously",6.36

# Source: paper PMC5263201, “GABAA receptor occupancy by subtype selective GABAAα2,3 modulators: PET studies in humans” (Psychopharmacology, 2016)
